Test results: US12116359B2, “EBNA1 inhibitor crystalline forms, and methods of preparing and using same” (THE WISTAR INSTITUTE, priority 2018, dated 2024)
“Also recorded” adds a separate entry of the source.

Tests used:
Assay type in all cases: physicochemical
[1] = Storage stability of solid forms at elevated temperature/humidity (XRPD, HPLC purity); details: one week
Experimental: Purity analysis was performed on an Agilent HP1100 series system equipped with a diode array detector and using ChemStation software vB.04.03 using the method detailed in Table 1.
Amorphous (I) free acid was stored at 40° C./75% RH (open vial), 25° C./97% RH (open vial) and 60° C. (closed vial, ambient humidity) for 8 weeks.
Characterization by XRPD, ^1H NMR, TGA, DSC and storage at 40° C./75% RH for one week was carried out. Details are found in Table 10.

[2] = Gravimetric vapour sorption (GVS); details: for Hygroscopicity: GVS, 0-90% RH
Experimental: Sorption isotherms were obtained using a SMS DVS Intrinsic moisture sorption analyzer, controlled by DVS Intrinsic Control software. The sample temperature was maintained at 25° C. by instrument controls. The humidity was controlled by mixing streams of dry and wet nitrogen, with a total flow rate of 200 ml/min. The relative humidity was measured by a calibrated Rotronic probe (dynamic range of 1.0-100% RH), located near the sample. The weight change (mass relaxation) of the sample as a function of % RH was constantly monitored by the microbalance (accuracy ±0.005 mg). Typically 5-20 mg of sample was placed in a tared mesh stainless steel basket under ambient conditions. The sample was loaded and unloaded at 40% RH and 25° C. (typical room conditions). A moisture sorption isotherm was performed as outlined below (2 scans giving 1 complete cycle). The standard isotherm was performed at 25° C. at 10% RH intervals over a 0-90% RH range. Data analysis was carried out using Microsoft Excel. The sample was recovered after completion of the isotherm and re-analyzed by XRPD.

[3] = Stability assessment of Pattern 5 slurried in solvents at 4 or 50° C.; details: for Solid form recovered in stability assessment: 4 and 50° C., 8 solvents including solvent mixtures, XRPD; for Observations Overnight at 4° C. maturation / Observations Overnight at 50° C. maturation: 16 h
Experimental: The aim of this set of experiments was to test the stability of Pattern 5 in different conditions by slurring the material at either 4 or 50° C. in a range of 8 selected solvents including mixtures.
The supplied material was dissolved or suspended in the chosen solvent at r.t. Solvents were added in 10 vol. aliquots up to 30 vol. and observations were recorded; if a solution was obtained at any point then no further additions were made. Samples were kept at 4° C. or 50° C. over 16 h, and analyzed by XRPD. The solids were filtered and analyzed by XRPD. The solutions were allowed to evaporate at r.t. to afford solids which were also analyzed by XRPD.

[4] = Variable temperature XRPD; details: 25-165° C.
Experimental: Samples run under non-ambient conditions were mounted on a silicon wafer with heat-conducting compound. The sample was then heated to the appropriate temperature at 30° C./min and subsequently held isothermally for 1 minute before data collection was initiated.

[5] = Storage stability of solid forms at elevated temperature/humidity (XRPD, HPLC purity); details: 25° C./97% RH, one week; listed as Crystalline Pattern 5
[6] = listed as Crystalline Pattern 5
[7] = EtOAc, solid after evaporation at r.t.
[8] = EtOAc/EtOH (1:3), solid after evaporation at r.t.
[9] = EtOAc/EtOH (3:1), solid after evaporation at r.t.

O=C(O)c1cccc(C#Cc2ccc(COC3CCOCC3)cc2)c1-c1ccc2cc[nH]c2c1 [Pattern 5, 2-(1H-Indol-6-yl)-3-[4-(tetrahydro-pyran-4-yloxymethyl)-phenylethynyl]-benzoic acid]
XRPD post 25° C./97% RH ([1]; 25° C./97% RH): remained unchanged by XRPD | HPLC Purity after storage at 25° C./97% RH (Pharmorphix generic method) ([1]; 25° C./97% RH, initial purity 98.3% A.U.C.): 98.0 % A.U.C. | XRPD post 40° C./75% RH ([1]; 40° C./75% RH): remained unchanged by XRPD | HPLC Purity after storage at 40° C./75% RH (Pharmorphix generic method) ([1]; 40° C./75% RH, initial purity 98.3% A.U.C.): 98.0 % A.U.C. | XRPD post 40° C./75% RH ([1]; 40° C./75% RH, listed as Crystalline Pattern 5): No change in crystalline form; also recorded: Unchanged | Hygroscopicity [2]: non-hygroscopic | Hygroscopicity [2, 6]: non-hygroscopic; also recorded: not hygroscopic | XRPD after GVS ([2]; after 0-90% RH isotherm, listed as Crystalline Pattern 5): Unchanged by XRPD | GVS moisture uptake ([2]; between 0-90% RH, 25° C., listed as Crystalline Pattern 5): 0.3% | Solid form recovered in stability assessment [3]: no change in solid form | Solid form recovered in stability assessment [3, 6]: Pattern 5 being recovered in all cases | Observations Overnight at 4° C. maturation ([3]; EtOAc): solution | XRPD after stability assessment at 4° C. [3, 7]: Pattern 5 | Observations Overnight at 50° C. maturation ([3]; EtOAc): solution | XRPD after stability assessment at 50° C. [3, 7]: Pattern 5 | Observations Overnight at 4° C. maturation ([3]; EtOAc/EtOH (1:3)): solution | XRPD after stability assessment at 4° C. [3, 8]: Pattern 5 | Observations Overnight at 50° C. maturation ([3]; EtOAc/EtOH (1:3)): solution + yellow solid | XRPD after stability assessment at 50° C. [3, 8]: Pattern 5 | Observations Overnight at 4° C. maturation ([3]; EtOAc/EtOH (3:1)): solution | XRPD after stability assessment at 4° C. [3, 9]: Pattern 5 | Observations Overnight at 50° C. maturation ([3]; EtOAc/EtOH (3:1)): solution + yellow solid | XRPD after stability assessment at 50° C. [3, 9]: Pattern 5 | XRPD after stability assessment at 4° C. ([3]; EtOH): Pattern 5 | Observations Overnight at 4° C. maturation ([3]; EtOH): White Suspension | Observations Overnight at 50° C. maturation ([3]; EtOH): solution | XRPD after stability assessment at 50° C. ([3]; EtOH, solid after evaporation at r.t.): Pattern 5 | XRPD after stability assessment at 4° C. ([3]; Heptane): Pattern 5 | Observations Overnight at 4° C. maturation ([3]; Heptane): White Suspension | XRPD after stability assessment at 50° C. ([3]; Heptane): Pattern 5 | Observations Overnight at 50° C. maturation ([3]; Heptane): White Suspension | XRPD after stability assessment at 4° C. ([3]; IPA): Pattern 5 | Observations Overnight at 4° C. maturation ([3]; IPA): White Suspension | Observations Overnight at 50° C. maturation ([3]; IPA): solution + yellow solid | XRPD after stability assessment at 50° C. ([3]; IPA, solid after evaporation at r.t.): Pattern 5 | XRPD after stability assessment at 4° C. ([3]; MIBK): Pattern 5 | Observations Overnight at 4° C. maturation ([3]; MIBK): Off-White Suspension | Observations Overnight at 50° C. maturation ([3]; MIBK): solution | XRPD after stability assessment at 50° C. ([3]; MIBK, solid after evaporation at r.t.): Pattern 5 | XRPD after stability assessment at 4° C. ([3]; TBME): Pattern 5 | Observations Overnight at 4° C. maturation ([3]; TBME): White Suspension | XRPD after stability assessment at 50° C. ([3]; TBME): Pattern 5 | Observations Overnight at 50° C. maturation ([3]; TBME): White Suspension | Variable temperature XRPD [4]: remained as Pattern 5 | Variable temperature XRPD [4, 6]: Remained as Pattern 5 from 25-165 °C | XRPD post 25° C./97% RH [5]: No change in crystalline form; also recorded: Unchanged
